Active and inactive are the calls of the source.
Key:
[1] = target: T1, Eukaryotic translation initiation factor 2-alpha kinase 3 (Homo sapiens, UniProt Q9NZJ5); assay: Dose response cell-based high-throughput screening assay to measure PERK inhibition. [Related pubchem assays: 1416 ]; type: functional
[2] = target: T1, Eukaryotic translation initiation factor 2-alpha kinase 3; assay: Counterscreen assay for PERK inhibitors: Dose response cell-based high throughput screening assay to measure inhibition of PERK at 6 hours. [Related pubchem assays: 1522, 1416 ]; type: functional
[3] = target: T2, Voltage-dependent T-type calcium channel subunit alpha-1H (Homo sapiens, UniProt O95180); type: functional
T2 sequence (O95180 whole entry): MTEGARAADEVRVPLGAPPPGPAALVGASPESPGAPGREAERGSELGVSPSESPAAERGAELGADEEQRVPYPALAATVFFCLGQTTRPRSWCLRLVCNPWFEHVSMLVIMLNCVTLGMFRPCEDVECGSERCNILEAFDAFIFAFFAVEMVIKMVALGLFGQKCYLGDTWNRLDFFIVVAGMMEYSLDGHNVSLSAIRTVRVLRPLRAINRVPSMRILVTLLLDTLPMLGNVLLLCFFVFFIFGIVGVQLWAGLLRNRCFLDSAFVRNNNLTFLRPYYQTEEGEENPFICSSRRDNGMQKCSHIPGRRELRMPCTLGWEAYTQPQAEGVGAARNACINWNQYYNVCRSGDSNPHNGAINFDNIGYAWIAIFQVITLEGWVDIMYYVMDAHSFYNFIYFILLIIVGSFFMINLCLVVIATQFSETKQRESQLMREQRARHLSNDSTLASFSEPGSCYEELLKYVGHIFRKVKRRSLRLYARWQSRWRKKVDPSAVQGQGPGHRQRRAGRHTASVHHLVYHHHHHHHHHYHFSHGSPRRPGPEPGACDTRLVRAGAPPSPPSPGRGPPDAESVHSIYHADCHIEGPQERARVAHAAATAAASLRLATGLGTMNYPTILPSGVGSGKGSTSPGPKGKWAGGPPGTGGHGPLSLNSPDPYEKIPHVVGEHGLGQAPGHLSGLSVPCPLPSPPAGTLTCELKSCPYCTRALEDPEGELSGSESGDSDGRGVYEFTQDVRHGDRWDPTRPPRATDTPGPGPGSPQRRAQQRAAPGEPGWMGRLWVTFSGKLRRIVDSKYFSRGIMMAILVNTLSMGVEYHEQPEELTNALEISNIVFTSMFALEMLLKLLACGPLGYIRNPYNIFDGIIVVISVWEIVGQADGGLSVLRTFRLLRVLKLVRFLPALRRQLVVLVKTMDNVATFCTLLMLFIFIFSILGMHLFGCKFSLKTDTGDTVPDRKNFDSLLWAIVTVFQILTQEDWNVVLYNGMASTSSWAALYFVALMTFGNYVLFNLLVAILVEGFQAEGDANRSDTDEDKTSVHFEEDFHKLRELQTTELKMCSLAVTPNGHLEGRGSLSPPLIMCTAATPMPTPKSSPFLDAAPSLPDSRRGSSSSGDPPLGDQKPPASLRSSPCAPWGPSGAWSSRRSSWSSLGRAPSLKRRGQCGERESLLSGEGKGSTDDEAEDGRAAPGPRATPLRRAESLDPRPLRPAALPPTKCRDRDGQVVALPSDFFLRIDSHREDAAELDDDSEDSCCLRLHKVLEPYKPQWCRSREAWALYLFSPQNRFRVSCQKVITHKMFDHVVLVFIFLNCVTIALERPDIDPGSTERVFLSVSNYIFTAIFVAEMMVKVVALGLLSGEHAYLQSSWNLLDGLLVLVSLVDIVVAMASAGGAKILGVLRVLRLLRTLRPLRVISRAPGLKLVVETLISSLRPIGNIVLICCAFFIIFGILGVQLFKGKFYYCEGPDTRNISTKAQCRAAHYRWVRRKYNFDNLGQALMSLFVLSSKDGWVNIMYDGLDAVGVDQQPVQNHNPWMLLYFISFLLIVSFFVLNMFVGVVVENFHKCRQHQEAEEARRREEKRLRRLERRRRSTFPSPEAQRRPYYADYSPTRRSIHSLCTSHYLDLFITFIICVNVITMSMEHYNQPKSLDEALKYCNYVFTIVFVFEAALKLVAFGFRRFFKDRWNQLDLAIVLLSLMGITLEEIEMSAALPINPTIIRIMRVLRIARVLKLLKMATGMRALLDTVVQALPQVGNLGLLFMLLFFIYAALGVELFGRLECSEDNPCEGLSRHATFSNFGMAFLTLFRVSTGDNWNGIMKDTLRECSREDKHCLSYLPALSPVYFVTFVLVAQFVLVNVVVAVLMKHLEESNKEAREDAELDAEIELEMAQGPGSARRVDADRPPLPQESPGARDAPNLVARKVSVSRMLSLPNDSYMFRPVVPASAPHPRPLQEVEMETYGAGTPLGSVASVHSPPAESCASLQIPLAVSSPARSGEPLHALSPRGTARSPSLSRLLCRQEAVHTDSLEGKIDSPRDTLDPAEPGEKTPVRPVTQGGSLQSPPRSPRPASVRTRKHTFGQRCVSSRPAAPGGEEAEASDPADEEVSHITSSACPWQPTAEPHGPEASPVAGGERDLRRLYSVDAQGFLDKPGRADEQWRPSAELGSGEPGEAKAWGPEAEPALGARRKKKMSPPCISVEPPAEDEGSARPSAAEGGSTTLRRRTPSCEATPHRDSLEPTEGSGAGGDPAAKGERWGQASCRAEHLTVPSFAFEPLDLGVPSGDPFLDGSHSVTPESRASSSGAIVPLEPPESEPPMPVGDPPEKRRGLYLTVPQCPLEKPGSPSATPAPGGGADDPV

[4] = target: T2, Voltage-dependent T-type calcium channel subunit alpha-1H; assay: Inhibitors of T-Type Calcium Channels. [Related pubchem assays (depositor defined):AID449739, AID463087, AID489005, AID493041, AID504579, AID504584, AID504619, AID504628]; type: functional
Estrogen receptor beta = Estrogen receptor beta (Homo sapiens, UniProt Q92731);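 note: recombinant ER-beta bound to coactivator SRC1 peptide in presence of estradiol agonist; inhibitors block coactivator peptide binding and lower the FRET signal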
HEK293 = assay: cells; conditions: Homo sapiens;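 note: cells exposed to compound for 14 hours overnight before viability readout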
[5] = target: Nucleotide-binding oligomerization domain-containing protein 1 (Homo sapiens, UniProt Q9Y239); assay: NOD1 signaling inhibitors, SAR follow-up, revised (AID 2333); type: functional
Tumor necrosis factor = Tumor necrosis factor (Homo sapiens, UniProt P01375); assay: TNFa-triggered NF-kB activation inhibitors, SAR follow-up, cell-based, revised (AID 2337); type: functional
Chain of Tumor necrosis factor (P01375 whole entry, the tested form may be a part): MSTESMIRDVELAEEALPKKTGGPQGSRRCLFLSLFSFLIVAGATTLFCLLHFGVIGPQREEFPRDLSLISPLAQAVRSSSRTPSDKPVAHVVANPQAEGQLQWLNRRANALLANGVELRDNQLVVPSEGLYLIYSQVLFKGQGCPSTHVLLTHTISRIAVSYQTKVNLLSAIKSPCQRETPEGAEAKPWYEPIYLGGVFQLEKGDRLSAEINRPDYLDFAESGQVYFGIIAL

[6] = target: Nucleotide-binding oligomerization domain-containing protein 2 (Homo sapiens, UniProt Q9HC29); assay: PubChem AID 2334; type: functional
[7] = target: T3, Polyadenylate-binding protein 1 (Homo sapiens, UniProt P11940); assay: PABP1 MLLE–PAM2 binding inhibitor potency, dose response, biochemical, fluorescence polarization, FITC-PAM2 peptide (AID 602259); type: functional; conditions: read-out: IC50_Mean
T3 sequence (P11940 whole entry): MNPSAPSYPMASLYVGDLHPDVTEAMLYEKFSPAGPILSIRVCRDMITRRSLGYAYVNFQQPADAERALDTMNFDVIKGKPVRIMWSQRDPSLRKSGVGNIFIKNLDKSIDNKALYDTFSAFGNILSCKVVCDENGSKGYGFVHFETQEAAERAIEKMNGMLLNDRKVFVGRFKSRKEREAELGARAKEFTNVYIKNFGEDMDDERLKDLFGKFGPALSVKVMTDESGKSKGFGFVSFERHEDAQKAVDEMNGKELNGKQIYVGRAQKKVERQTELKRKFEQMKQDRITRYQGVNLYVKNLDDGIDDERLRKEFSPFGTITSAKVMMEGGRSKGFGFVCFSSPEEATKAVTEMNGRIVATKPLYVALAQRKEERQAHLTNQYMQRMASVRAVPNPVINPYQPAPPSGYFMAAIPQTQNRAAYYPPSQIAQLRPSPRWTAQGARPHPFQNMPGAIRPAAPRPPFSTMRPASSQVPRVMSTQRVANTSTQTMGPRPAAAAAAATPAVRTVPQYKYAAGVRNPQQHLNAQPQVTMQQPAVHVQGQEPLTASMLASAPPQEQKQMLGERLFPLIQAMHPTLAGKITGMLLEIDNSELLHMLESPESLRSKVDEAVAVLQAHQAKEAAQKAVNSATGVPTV

[8] = target: Female germline-specific tumor suppressor gld-1 (Caenorhabditis elegans, UniProt Q17339); assay: inhibitors of GLD-1 binding to TGE RNA, dose response, biochemical, fluorescence polarization, C. elegans (AID 2802);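 note: fluorescence polarization of labeled TGE RNA bound by purified gld-1 protein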
Chain of Female germline-specific tumor suppressor gld-1 (Q17339 whole entry): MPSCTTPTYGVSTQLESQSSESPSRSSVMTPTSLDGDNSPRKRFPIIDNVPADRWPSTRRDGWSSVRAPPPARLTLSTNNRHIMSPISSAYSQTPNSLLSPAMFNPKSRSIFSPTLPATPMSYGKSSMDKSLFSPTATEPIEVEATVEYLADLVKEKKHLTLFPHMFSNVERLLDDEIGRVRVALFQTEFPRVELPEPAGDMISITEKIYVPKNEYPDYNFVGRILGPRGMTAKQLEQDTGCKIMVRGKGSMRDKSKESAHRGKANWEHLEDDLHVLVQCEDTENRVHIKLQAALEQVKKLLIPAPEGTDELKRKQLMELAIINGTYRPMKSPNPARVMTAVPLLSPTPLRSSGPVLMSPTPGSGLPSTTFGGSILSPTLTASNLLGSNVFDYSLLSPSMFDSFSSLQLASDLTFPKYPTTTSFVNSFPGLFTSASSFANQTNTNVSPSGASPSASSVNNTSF

Protein Rev = Protein Rev (Human immunodeficiency virus type 1 group M subtype B (isolate HXB2)(HIV-1), UniProt P04618); assay: inhibitors of Rev binding to RRE RNA, dose response, biochemical, fluorescence polarization, HIV-1 (AID 434976); set-up: species or system Human immunodeficiency virus 1
Chain of Protein Rev (P04618 whole entry): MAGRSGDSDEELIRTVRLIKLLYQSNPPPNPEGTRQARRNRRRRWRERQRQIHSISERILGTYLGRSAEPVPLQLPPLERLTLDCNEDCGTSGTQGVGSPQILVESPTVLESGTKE

[9] = target: T3, Polyadenylate-binding protein 1; assay: PABP1 MLLE–PAM2 interaction inhibitors, dose response, miRNA deadenylation inhibitor project, biochemical, fluorescence polarization, Cy5-PAM2 peptide, secondary (AID 602260); type: functional; conditions: read-out: IC50_Mean
[10] = target: T4, Corticotropin-releasing factor receptor 2/Corticotropin-releasing factor-binding protein (Homo sapiens, UniProt P24387+Q13324); assay: activators of CRF receptor 2 with binding protein – uHTS hits, confirmation (AID 602473); type: functional; conditions: read-out: EC50_Mean
T4 sequence (Q13324 whole entry): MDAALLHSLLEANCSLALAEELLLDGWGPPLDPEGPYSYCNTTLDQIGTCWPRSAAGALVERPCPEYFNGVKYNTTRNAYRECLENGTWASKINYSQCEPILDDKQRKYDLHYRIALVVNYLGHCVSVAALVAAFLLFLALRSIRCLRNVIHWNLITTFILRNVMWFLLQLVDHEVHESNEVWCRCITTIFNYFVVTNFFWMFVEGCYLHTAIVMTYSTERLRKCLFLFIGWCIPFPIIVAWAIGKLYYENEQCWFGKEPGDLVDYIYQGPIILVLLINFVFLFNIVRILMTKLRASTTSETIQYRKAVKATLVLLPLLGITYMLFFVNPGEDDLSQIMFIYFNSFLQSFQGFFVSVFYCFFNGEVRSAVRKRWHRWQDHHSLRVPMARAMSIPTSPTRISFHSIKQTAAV
T4 sequence (P24387 whole entry): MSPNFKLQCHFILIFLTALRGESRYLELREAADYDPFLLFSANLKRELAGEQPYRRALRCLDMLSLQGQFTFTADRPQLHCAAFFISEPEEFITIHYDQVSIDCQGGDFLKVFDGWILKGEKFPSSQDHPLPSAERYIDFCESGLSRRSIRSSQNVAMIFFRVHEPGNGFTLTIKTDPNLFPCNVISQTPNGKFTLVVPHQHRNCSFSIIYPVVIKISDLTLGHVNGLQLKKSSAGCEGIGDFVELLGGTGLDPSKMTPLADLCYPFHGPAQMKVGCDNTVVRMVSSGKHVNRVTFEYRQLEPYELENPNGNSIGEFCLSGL

[11] = target: T4, Corticotropin-releasing factor receptor 2/Corticotropin-releasing factor-binding protein; assay: Dose Response confirmation of uHTS hits for small molecule antagonists of the CRF-binding protein and CRF-R2 receptor complex.; type: functional; conditions: read-out: IC50_Mean
[12] = target: Acyl-homoserine lactone acylase PvdQ (Pseudomonas aeruginosa (strain LESB58), UniProt Q9I194); assay: P. aeruginosa PvdQ acylase inhibitors, dose response, biochemical, fluorescence, plate reader and imaging, cherry-picks (AID 493231)
[13] = CRF-BP/CRF-R2 complex antagonists, dose response, cell-based, uHTS hits, 384-well (AID 651639); type: functional, Homo sapiens; conditions: read-out: IC50_Mean
[14] = A cytotoxicity screen of small molecule inhibitors of the PhoP region in Salmonella typhi identified in the primary screen. [Related pubchem assays: 1850, 1864, 1985 ]; type: functional

T1 sequence (Q9NZJ5 whole entry): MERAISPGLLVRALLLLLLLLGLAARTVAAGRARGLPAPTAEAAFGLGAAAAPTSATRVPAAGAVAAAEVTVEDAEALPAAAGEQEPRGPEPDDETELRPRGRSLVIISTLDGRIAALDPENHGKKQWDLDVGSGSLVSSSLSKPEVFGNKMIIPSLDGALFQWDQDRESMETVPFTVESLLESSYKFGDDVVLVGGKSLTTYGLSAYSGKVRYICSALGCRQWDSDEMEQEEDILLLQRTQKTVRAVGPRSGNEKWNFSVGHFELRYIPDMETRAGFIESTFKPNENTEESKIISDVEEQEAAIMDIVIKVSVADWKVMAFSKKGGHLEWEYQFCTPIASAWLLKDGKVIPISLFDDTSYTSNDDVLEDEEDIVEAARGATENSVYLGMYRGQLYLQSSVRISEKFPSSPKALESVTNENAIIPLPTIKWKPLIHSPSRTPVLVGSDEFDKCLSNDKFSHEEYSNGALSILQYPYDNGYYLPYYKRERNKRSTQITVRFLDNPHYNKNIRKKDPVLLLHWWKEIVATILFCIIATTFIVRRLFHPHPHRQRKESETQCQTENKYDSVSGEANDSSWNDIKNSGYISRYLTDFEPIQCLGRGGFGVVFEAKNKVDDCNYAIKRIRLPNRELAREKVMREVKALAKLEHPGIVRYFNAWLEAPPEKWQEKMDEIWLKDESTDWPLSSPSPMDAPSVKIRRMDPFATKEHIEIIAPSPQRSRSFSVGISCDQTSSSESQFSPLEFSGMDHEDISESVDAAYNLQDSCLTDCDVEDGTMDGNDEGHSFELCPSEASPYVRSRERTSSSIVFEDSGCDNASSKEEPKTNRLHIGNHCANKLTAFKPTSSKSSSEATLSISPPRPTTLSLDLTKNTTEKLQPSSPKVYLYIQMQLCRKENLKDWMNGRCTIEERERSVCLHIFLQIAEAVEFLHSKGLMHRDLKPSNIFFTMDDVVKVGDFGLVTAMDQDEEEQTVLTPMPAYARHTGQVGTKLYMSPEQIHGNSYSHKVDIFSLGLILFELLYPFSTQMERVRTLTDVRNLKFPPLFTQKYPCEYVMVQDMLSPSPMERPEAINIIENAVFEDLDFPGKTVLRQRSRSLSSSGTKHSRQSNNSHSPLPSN

Structure (SMILES): C[C@]12CS(=O)(=O)C[C@H]1SC(=S)N2c1ccccc1
- EC50 [1]: > 55.7 µM (not active)
- EC50 [2]: > 55.7 µM (not active)

Structure (SMILES): COc1ccc(-c2noc(CCC(=O)N3CCN(c4cccc(C(F)(F)F)c4)CC3)n2)cc1
- EC50 [3]: 1.62 µM (active)
- EC50 [4]: 4.32 µM (active)
- IC50 (Estrogen receptor beta): > 50 µM (not active)

Structure (SMILES): CSC(S)=NN=Cc1ccc(Br)cc1
- IC50 (HEK293): > 20 µM (inactive)
- IC50 [5]: > 20 µM (inactive)
- IC50 (Tumor necrosis factor): > 20 µM (inactive)
- IC50 [6]: > 20 µM (inactive)

Structure (SMILES): Cc1ccc2c3c(cccc13)-c1ccccc1C2=O
- IC50 [7]: 51.1 µM (inactive)
- IC50 [8]: 2.67 µM (active)
- IC50 (Protein Rev): 10.1 µM (not active)
- IC50 [9]: 38.3 µM (inactive)

Structure (SMILES): O=[N+]([O-])c1cccnc1Sc1ccc(Cl)cc1
- EC50 [10]: > 53 µM (inactive)
- IC50 [11]: < 0.368 µM (active)
- AC50 [12]: 30.1 µM (active)
- IC50 [13]: 3.1 µM (active)

Structure (SMILES): CC(C)c1ccc(NC(=O)CSc2nnc(-c3ccccn3)n2C)cc1
- EC50 [14]: > 50 µM (active)
